According to patent US20240228476A1, “INHIBITORS OF PROTEIN TYROSINE PHOSPHATASE, COMPOSITIONS, AND METHODS OF USE” (BRISTOL-MYERS SQUIBB COMPANY, priority 2022, published 2024):
Read-outs that look alike come from different tables or passages of the source.

What was measured:
PTPN2 [1] = biological target: T1, PTPN2 (Homo sapiens, UniProt P17706); experiment: PTPN2 biochemical assay (PhosphoSens, substrate AQT0264); settings: PhosphoSens substrate AQT0264 20 μM, room temperature; read-out: PTPN2 BCHEM IC50
T1 sequence (P17706 1-415): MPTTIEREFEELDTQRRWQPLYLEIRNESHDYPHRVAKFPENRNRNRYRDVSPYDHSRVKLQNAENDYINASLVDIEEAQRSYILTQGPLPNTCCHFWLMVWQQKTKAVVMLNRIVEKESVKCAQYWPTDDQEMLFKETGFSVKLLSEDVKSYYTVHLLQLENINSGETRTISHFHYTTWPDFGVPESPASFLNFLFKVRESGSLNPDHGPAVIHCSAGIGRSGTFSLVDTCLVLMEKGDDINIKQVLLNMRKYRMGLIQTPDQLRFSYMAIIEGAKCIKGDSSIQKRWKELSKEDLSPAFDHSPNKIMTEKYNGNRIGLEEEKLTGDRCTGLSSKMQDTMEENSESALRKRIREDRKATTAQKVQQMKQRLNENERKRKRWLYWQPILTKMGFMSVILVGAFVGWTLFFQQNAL
Protocol: A PhosphoSens® kinase assay was performed as described by the vendor (AssayQuant Technologies, Marlborough, MA). Briefly, 1000× solutions of compounds were prepared in DMSO via serial dilution of the 10 mM DMSO stocks using 3-fold intervals in a 384-well reagent plate. 50 nL of the compound dilution series was then added to the corresponding wells of a 384-well assay plate. 40 mL of 1.25× substrate (AQT0264) in 1× assay buffer (50 mM HEPES pH 7.5, 500 μM EGTA, […] MgCl2, 0.01% Brij-35, 1% Glycerol, 1 mM DTT, and 0.2 mg/mL BSA) was transferred to each well of the assay plate to achieve a final substrate concentration of 20 μM. Finally, […] of 5×PTPN2 enzyme stock was added to each well of the assay plate for a final enzyme concentration of […]. Reaction progress curves were collected by sampling fluorescence intensity at the excitation wavelength 360 nm (λex360) and emission wavelength 480 nm (λem480) every 71 seconds for one hour using a Synergy H4 plate reader (BioTek Instruments/Agilent Technologies, Winooski, VT) at room temperature.
(§1) For IC50 data, High DDT concentration and/or DiFMUP substrate assays were used; a skilled artisan may use either assay.

phospho-STAT1 (Tyr701) = experiment: Phospho-STAT1 (Tyr701) HTRF assay in B16-F10 cells; assay type: cell-based; settings: mouse IFN-gamma 100 ng/ml, 1 hour, read-out: pSTAT1 HTRF B16 EC50
Protocol: B16-F10 cells (ATCC, Manassas, VA, #CRL-6475) were cultured in DMEM growth medium (ThermoFisher Scientific, Waltham, MA, #11995-040) supplemented with 10% heat inactivated FBS (ThermoFisher Scientific, #16140-071) and 1% pen/strep (ThermoFisher Scientific, #15140-122). The cells were seeded into a white opaque 384-well tissue culture treated microplate (PerkinElmer, Waltham, MA, #6007688) at a density of 10,000 cells/well in 20 uL total volume and incubated overnight at 37 C and 5% CO2. 30 nL of compounds dissolved in DMSO were then transferred from a source plate into target wells with the Echo650 acoustic liquid handler (Beckman Coulter, Indianapolis, IN). Negative control wells received 30 nL of DMSO only (0.15% final concentration). Plates were returned to the incubator for 1 hour and then cells treated with either 5 uL of growth medium or 5 uL of growth medium containing 500 ng/ml of recombinant mouse IFN-gamma protein (R&D Systems, Minneapolis, MN, #485-MI/CF, 100 ng/ml final concentration) using the Assist automated pipetting platform (INTEGRA Biosciences, Hudson, NH). Plates were incubated at 37 C for 1 hour and assayed for phosphorylated STAT1 protein levels with the phospho-STAT1 (Tyr701) HTRF kit (Cisbio, Bedford, MA, #63ADK026PEH) according to manufacturer's instructions. HTRF signal intensity was collected with the En Vision 2105 plate reader (PerkinElmer) 24 hours later and analyzed with the Dotmatics software platform to calculate compound IC50 values.

B16-F10 cells = experiment: Cell proliferation assay (CellTiter-Glo) in B16-F10 cells with IFN-gamma; assay type: cell-based; settings: mouse IFN-gamma 10 ng/mL, read-out: PTPN2 Prolif 5d B16F10 EC50
Protocol: B16-F10 cells (ATCC, Manassas, VA, #CRL-6475) were cultured in DMEM growth medium (ThermoFisher Scientific, Waltham, MA, #11995-040) supplemented with 10% heat inactivated FBS (ThermoFisher Scientific, #16140-071) and 1% pen/strep (ThermoFisher Scientific, #15140-122). The cells were seeded into two white opaque 384-well tissue culture treated microplates (PerkinElmer, Waltham, MA, #6007688) at a density of 100 cells/well in 20 uL total volume and incubated overnight at 37 C and 5% CO2. 30 nL of compounds dissolved in DMSO were then transferred from a source plate into target wells with the Echo650 acoustic liquid handler (Beckman Coulter, Indianapolis, IN). Negative control wells received 30 nL of DMSO only (0.15% final concentration). Plates were returned to the incubator for 1 hour and then cells treated with either 5 uL of growth medium or 5 uL of growth medium containing 50 ng/ml of recombinant mouse IFN-gamma protein (R&D Systems, Minneapolis, MN, #485-MI/CF, 10 ng/mL final concentration) using the Assist automated pipetting platform (INTEGRA Biosciences, Hudson, NH). Plates were incubated at 37 C for 4 days and cell proliferation assayed with the CellTiter-Glo reagent (Promega, Madison, WI, #G7573, 25 uL per well). […] Off-target compound mediated cytotoxicity was identified by checking for growth inhibition in the absence of IFNg.

PTPN2 [2] = biological target: T1, PTPN2; experiment: Phosphatase activity assay using DiFMUP as substrate; assay type: biochemical; set-up: purchased MilliporeSigma SRP5075; settings: 10 mM DTT, PTPN2 0.15 nM, room temperature, read-out: PTPN2 BCHEM DIFMUP IC50
Protocol: The PTPN2 biochemical assay was performed as follows, a 5× stock solution of human PTPN2 (SRP5075, MilliporeSigma, Burlington, MA) and a 1.25× stock solution of DiFMUP (D6567, ThermoFisher Scientific, Waltham, MA), were prepared in 1× reaction buffer consisting of 50 mM HEPES, pH 7.4, 1 mM EDTA, 150 mM NaCl, 0.2 mg/mL BSA, 100 U/mL catalase and 10 mM DTT. […] of the DiFMUP substrate solution, for a final concentration of […] DiFMUP substrate, was added to a Corning 3574 384-well, white, non-binding surface microtiter plate containing […] of serially diluted test compounds prepared in DMSO. The reactions were started with the addition of […] of the enzyme solution, for a final PTPN2 concentration of 0.15 nM, and monitored every 105 seconds for 60 minutes at λEX 360/λEM 460 in a BioTek Synergy HTX plate reader (Agilent Technologies, Santa Clara, CA) at room temperature. The initial linear portions of the progress curves were fit according to a linear equation to yield the slopes and converted to % inhibition based on a value of 100% activity for the no inhibitor treated control. IC50 values of each compound were obtained by fitting the % inhibition-compound concentration curves using Dotmatics software (Dotmatics, Bishops Stortford, Hertfordshire, England)
as §1

Molecule	IC50 (PTPN2 [1]) [µM]	EC50 (phospho-STAT1 (Tyr701)) [µM]	EC50 (B16-F10 cells) [µM]	IC50 (PTPN2 [2]) [µM]	EC50 (B16-F10 cells; 120 h) [µM]
6-[[3-fluoro-5-hydroxy-4-(1,1,4-trioxo-1,2,5-thiadiazolidin-2-yl)phenyl]methylamino]-4-methyl-pyridine-3-carbonitrile [EXAMPLE 5]	0.02	4.47	4.76	0.02	
CN(C)c1ccc(NCc2cc(O)c(N3CC(=O)NS3(=O)=O)c(F)c2)cn1 [EXAMPLE 1, 5-[4-[[[6-(dimethylamino)-3-pyridyl]amino]methyl]-2-fluoro-6-hydroxy-phenyl]-1,1-dioxo-1,2,5-thiadiazolidin-3-one]	0.02	0.42		0.13	0.9
Cc1cc(NCc2cc(O)c(N3CC(=O)NS3(=O)=O)c(F)c2)cc(C)n1 [EXAMPLE 2, 5-[4-[[(2,6-dimethyl-4-pyridyl)amino]methyl]-2-fluoro-6-hydroxy-phenyl]-1,1-dioxo-1,2,5-thiadiazolidin-3-one]	0.01	14.1		0.05	6
Cc1ccnc(C)c1NCc1cc(O)c(N2CC(=O)NS2(=O)=O)c(F)c1 [EXAMPLE 3, 5-[4-[[(2,4-dimethyl-3-pyridyl)amino]methyl]-2-fluoro-6-hydroxy-phenyl]-1,1-dioxo-1,2,5-thiadiazolidin-3-one]	0.09	6.16		0.06	5.37
N#Cc1cncc(NCc2cc(O)c(N3CC(=O)NS3(=O)=O)c(F)c2)c1 [EXAMPLE 4, 5-[[3-fluoro-5-hydroxy-4-(1,1,4-trioxo-1,2,5-thiadiazolidin-2-yl)phenyl]methylamino]pyridine-3-carbonitrile]	0.044	1.85		0.011	1.65
O=C1CN(c2c(O)cc(CNc3ccc(-c4ccccc4)nc3)cc2F)S(=O)(=O)N1 [EXAMPLE 6, 5-[2-fluoro-6-hydroxy-4-[[(6-phenyl-3-pyridyl)amino]methyl]phenyl]-1,1-dioxo-1,2,5-thiadiazolidin-3-one]	0.07	2.56		0.4	4.24
O=C1CN(c2c(O)cc(CNc3cncc(C(F)(F)F)c3)cc2F)S(=O)(=O)N1 [EXAMPLE 7, 5-[2-fluoro-6-hydroxy-4-[[[5-(trifluoromethyl)-3-pyridyl]amino]methyl]phenyl]-1,1-dioxo-1,2,5-thiadiazolidin-3-one]	0.04	2.3		0.1	3.13
O=C1CN(c2c(O)cc(CNc3cncc(Cl)c3)cc2F)S(=O)(=O)N1 [EXAMPLE 8, 5-[4-[[(5-chloro-3-pyridyl)amino]methyl]-2-fluoro-6-hydroxy-phenyl]-1,1-dioxo-1,2,5-thiadiazolidin-3-one]	0.02	2.67		0.22	3.9
CC(C)c1cnc(NCc2cc(O)c(N3CC(=O)NS3(=O)=O)c(F)c2)nc1 [EXAMPLE 11, 5-[2-fluoro-6-hydroxy-4-[[(5-isopropylpyrimidin-2-yl)amino]methyl]phenyl]-1,1-dioxo-1,2,5-thiadiazolidin-3-one]	0.14	1.77			6.02
COc1cnc(C)c(NCc2cc(O)c(N3CC(=O)NS3(=O)=O)c(F)c2)n1 [EXAMPLE 21, 5-[2-fluoro-6-hydroxy-4-[[(6-methoxy-3-methyl-pyrazin-2-yl)amino]methyl]phenyl]-1,1-dioxo-1,2,5-thiadiazolidin-3-one]		7.86		0.02	7.77
COc1nc(NCc2cc(O)c(N3CC(=O)NS3(=O)=O)c(F)c2)cnc1C [EXAMPLE 25, 5-[2-fluoro-6-hydroxy-4-[[(6-methoxy-5-methyl-pyrazin-2-yl)amino]methyl]phenyl]-1,1-dioxo-1,2,5-thiadiazolidin-3-one]		3.43		0.02	11.3
Cc1ccc(NCc2cc(O)c(N3CC(=O)NS3(=O)=O)c(F)c2)nn1 [EXAMPLE 28, 5-(2-fluoro-6-hydroxy-4-(((6-methylpyridazin-3-yl)amino)methyl)phenyl)-1,2,5-thiadiazolidin-3-one 1,1-dioxide]		0.25		0.02	0.63
Cc1cc(C)nc(NCc2cc(O)c(N3CC(=O)NS3(=O)=O)c(F)c2)n1 [EXAMPLE 29, 5-[4-[[(4,6-dimethylpyrimidin-2-yl)amino]methyl]-2-fluoro-6-hydroxy-phenyl]-1,1-dioxo-1,2,5-thiadiazolidin-3-one]		0.76		0.06	4.77
O=C1CN(c2c(O)cc(CNc3cnccc3-c3ccc(C(F)(F)F)cc3)cc2F)S(=O)(=O)N1 [EXAMPLE 30, 5-[2-fluoro-6-hydroxy-4-[[[4-[4-(trifluoromethyl)phenyl]-3-pyridyl]amino]methyl]phenyl]-1,1-dioxo-1,2,5-thiadiazolidin-3-one]		> 15		0.06	> 15
N#Cc1ncc(NCc2cc(O)c(N3CC(=O)NS3(=O)=O)c(F)c2)cn1 [EXAMPLE 32, 5-((4-(1,1-dioxido-4-oxo-1,2,5-thiadiazolidin-2-yl)-3-fluoro-5-hydroxybenzyl)amino)pyrimidine-2-carbonitrile]		0.73		0.001	1.38
